This passage reports IC50 and Kd results from ChEMBL document CHEMBL5523749, “Amphiphilic Heparinoids as Potent Antiviral Agents against SARS-CoV-2” (J Med Chem, 2024).

In assay [1] the test system is SARS-CoV-2. Format: functional, organism-based, Severe acute respiratory syndrome coronavirus 2, G614, Vero E6.
The subject of assay [2] is SARS-CoV-2. The following applies: vero e6.
Description: (§1) Antiviral activity against SARS-CoV-2 D614 isolates infected in African green monkey Vero E6 cells assessed as reduction in plaque formation treated for 1 hr prior to infection with cells incubated for 30 mins by plaque reduction neutralization test
Assay [3] has as its system SARS-CoV-2. In words: microbe, parasite or virus in culture. The following applies: Severe acute respiratory syndrome coronavirus 2, D614, Vero C1008.
Description: as §1
The target of a further assay is Spike glycoprotein (Severe acute respiratory syndrome coronavirus 2, UniProt P0DTC2). Nature of the assay: Binding affinity to RBD domain of SARS-CoV-2 spike protein assessed as dissociation constant by Isothermal Titration Calorimetry. A general note: ITC needs no label: the signal is the heat of the interaction.
A further assay addresses T1, Heparanase (Homo sapiens, UniProt Q9Y251).
T1 sequence (Q9Y251 whole entry): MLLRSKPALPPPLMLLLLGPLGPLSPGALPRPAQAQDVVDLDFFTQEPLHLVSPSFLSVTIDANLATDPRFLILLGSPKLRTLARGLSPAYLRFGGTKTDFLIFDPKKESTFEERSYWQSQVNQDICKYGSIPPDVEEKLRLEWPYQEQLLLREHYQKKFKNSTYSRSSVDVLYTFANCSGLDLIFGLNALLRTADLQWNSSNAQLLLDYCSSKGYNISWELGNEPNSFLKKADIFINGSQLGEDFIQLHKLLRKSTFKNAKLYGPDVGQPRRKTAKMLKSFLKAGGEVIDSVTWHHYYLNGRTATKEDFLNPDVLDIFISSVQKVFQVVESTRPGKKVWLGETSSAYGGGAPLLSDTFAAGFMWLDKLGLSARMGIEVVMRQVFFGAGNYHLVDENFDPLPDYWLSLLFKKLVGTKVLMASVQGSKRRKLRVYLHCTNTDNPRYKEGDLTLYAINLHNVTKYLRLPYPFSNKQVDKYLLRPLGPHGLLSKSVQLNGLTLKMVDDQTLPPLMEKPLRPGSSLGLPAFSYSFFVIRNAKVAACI
Nature of the assay: Inhibition of recombinant human heparanase expressed in Insect cells assessed as fondaparinux cleavage by measuring disaccharide product incubated for 18 to 21 hrs. The following applies: insect cell.

Assay [4] concerns Respiratory syncytial virus. Nature of the assay: Antiviral activity against RSV A2 strain infected in HEp-2 cells assessed as reduction in plaque number measured after 3 days incubation. The following applies: human respiratory syncytial virus, A2, HEp-2, 72 h.
A further assay deals with Human alphaherpesvirus 2. Nature of the assay: Antiviral activity against HSV2 infected in CMK AH1 cells assessed as reduction in plaque number measured after 2 days incubation. The following applies: Human alphaherpesvirus 2, CMK AH1, 48 h.
Where [5] appears, read: Severe acute respiratory syndrome coronavirus 2, G614, Vero C1008, read-out: IC50.

A word on the IC50: it is the concentration at which inhibition is half-maximal. A word on the Kd: it is the constant that tells how readily two partners part at equilibrium.

The structures appear in SMILES notation. Values after ≈ are worked out from the molar mass of the structure shown.

As for `O=C(CCCCCCCCCCn1cc(CNc2ccc([N+](=O)[O-])c3nonc23)nn1)NCCCCCCO[C@@H]1O[C@H](COS(=O)(=O)[O-])[C@@H](O[C@H]2O[C@H](COS(=O)(=O)[O-])[C@@H](O[C@H]3O[C@H](COS(=O)(=O)[O-])[C@@H](O[C@H]4O[C@H](COS(=O)(=O)[O-])[C@@H](OS(=O)(=O)[O-])[C@H](OS(=O)(=O)[O-])[C@H]4OS(=O)(=O)[O-])[C@H](OS(=O)(=O)[O-])[C@H]3OS(=O)(=O)[O-])[C@H](OS(=O)(=O)[O-])[C@H]2OS(=O)(=O)[O-])[C@H](OS(=O)(=O)[O-])[C@H]1OS(=O)(=O)[O-].[Na+].[Na+].[Na+].[Na+].[Na+].[Na+].[Na+].[Na+].[Na+].[Na+].[Na+].[Na+].[Na+]`, the values for the IC50 in the assay with SARS-CoV-2 [1] (setting [5]) and with SARS-CoV-2 [2] were 16.1 µg/mL and “Not Active”, respectively.

With `CC(C)CCC[C@@H](C)[C@H]1CC[C@H]2[C@@H]3CC[C@H]4C[C@@H](O[C@H]5O[C@H](COS(=O)(=O)[O-])[C@@H](O[C@H]6O[C@H](COS(=O)(=O)[O-])[C@@H](O[C@H]7O[C@H](COS(=O)(=O)[O-])[C@@H](O[C@H]8O[C@H](COS(=O)(=O)[O-])[C@@H](O[C@H]9O[C@H](COS(=O)(=O)[O-])[C@@H](O[C@H]%10O[C@H](COS(=O)(=O)[O-])[C@@H](OS(=O)(=O)[O-])[C@H](OS(=O)(=O)[O-])[C@H]%10OS(=O)(=O)[O-])[C@H](OS(=O)(=O)[O-])[C@H]9OS(=O)(=O)[O-])[C@H](OS(=O)(=O)[O-])[C@H]8OS(=O)(=O)[O-])[C@H](OS(=O)(=O)[O-])[C@H]7OS(=O)(=O)[O-])[C@H](OS(=O)(=O)[O-])[C@H]6OS(=O)(=O)[O-])[C@H](OS(=O)(=O)[O-])[C@H]5OS(=O)(=O)[O-])CC[C@]4(C)[C@H]3CC[C@]12C.[Na+].[Na+].[Na+].[Na+].[Na+].[Na+].[Na+].[Na+].[Na+].[Na+].[Na+].[Na+].[Na+].[Na+].[Na+].[Na+].[Na+].[Na+].[Na+]`, the 50% inhibitory concentration (IC50) in the assay with SARS-CoV-2 [3] came to 12.2 µg/mL; in the assay with SARS-CoV-2 [1] (setting [5]), 21.7 µg/mL. Moreover, the Kd at Spike glycoprotein was 1.87 µM.

Consider `CC(C)CCC[C@@H](C)[C@H]1CC[C@H]2[C@@H]3CC[C@H]4C[C@@H](O[C@@H]5O[C@@H](COS(=O)(=O)O)[C@@H](O[C@@H]6O[C@@H](COS(=O)(=O)O)[C@@H](O[C@@H]7O[C@@H](COS(=O)(=O)O)[C@@H](OS(=O)(=O)O)[C@H](O)[C@H]7OS(=O)(=O)O)[C@H](O)[C@H]6OS(=O)(=O)O)[C@H](O)[C@H]5OS(=O)(=O)O)CC[C@]4(C)[C@H]3CC[C@]12C`, for which the IC50 with SARS-CoV-2 [3] amounted to 26.9 µg/mL (≈ 18.7 µM). At Spike glycoprotein, the dissociation constant Kd was determined as 2.11 µM.

For the molecule `CCCCCCCCCCCCCCCCCC(=O)NCCCO[C@@H]1O[C@H](COS(=O)(=O)[O-])[C@@H](O[C@H]2O[C@H](COS(=O)(=O)[O-])[C@@H](O[C@H]3O[C@H](COS(=O)(=O)[O-])[C@@H](O[C@H]4O[C@H](COS(=O)(=O)[O-])[C@@H](O[C@H]5O[C@H](COS(=O)(=O)[O-])[C@@H](O[C@H]6O[C@H](COS(=O)(=O)[O-])C(OS(=O)(=O)[O-])[C@H](OS(=O)(=O)[O-])[C@H]6OS(=O)(=O)[O-])[C@H](OS(=O)(=O)[O-])[C@H]5OS(=O)(=O)[O-])[C@H](OS(=O)(=O)[O-])[C@H]4OS(=O)(=O)[O-])[C@H](OS(=O)(=O)[O-])[C@H]3OS(=O)(=O)[O-])[C@H](OS(=O)(=O)[O-])[C@H]2OS(=O)(=O)[O-])[C@H](OS(=O)(=O)[O-])[C@H]1OS(=O)(=O)[O-].[Na+].[Na+].[Na+].[Na+].[Na+].[Na+].[Na+].[Na+].[Na+].[Na+].[Na+].[Na+].[Na+].[Na+].[Na+].[Na+].[Na+].[Na+].[Na+]` (stereo partly drawn), the IC50 entry in the assay on SARS-CoV-2 [1] (vero e6) and in the assay on SARS-CoV-2 [2] was “Not Active” each time.

For `CC(C)CCC[C@@H](C)[C@H]1CC[C@H]2[C@@H]3CC[C@H]4C[C@@H](O[C@@H]5O[C@@H](C(=O)O)[C@@H](O[C@@H]6O[C@@H](C(=O)O)[C@@H](OS(=O)(=O)O)[C@H](O)[C@H]6OS(=O)(=O)O)[C@H](O)[C@H]5OS(=O)(=O)O)CC[C@]4(C)[C@H]3CC[C@]12C`, the IC50 in the assay with SARS-CoV-2 [3] is 33.7 µg/mL (≈ 34.3 µM); at Heparanase it was “Not Active”.

For the molecule `CC(C)CCC[C@@H](C)[C@H]1CC[C@H]2[C@@H]3CC[C@H]4C[C@@H](O[C@@H]5O[C@H](COS(=O)(=O)[O-])[C@@H](O[C@H]6O[C@H](COS(=O)(=O)[O-])[C@@H](O[C@H]7O[C@H](COS(=O)(=O)[O-])[C@@H](O[C@H]8O[C@H](COS(=O)(=O)[O-])[C@@H](OS(=O)(=O)[O-])[C@H](OS(=O)(=O)[O-])[C@H]8OS(=O)(=O)[O-])[C@H](OS(=O)(=O)[O-])[C@H]7OS(=O)(=O)[O-])[C@H](OS(=O)(=O)[O-])[C@H]6OS(=O)(=O)[O-])[C@H](OS(=O)(=O)[O-])[C@H]5OS(=O)(=O)[O-])CC[C@]4(C)[C@H]3CC[C@]12C.[Na+].[Na+].[Na+].[Na+].[Na+].[Na+].[Na+].[Na+].[Na+].[Na+].[Na+].[Na+].[Na+]`, the results for the IC50 (with SARS-CoV-2 [3]; in assay [4]; with Human alphaherpesvirus 2) were 29.6 µg/mL, roughly 1 µg/mL and roughly 1 µg/mL, respectively. Moreover, at Spike glycoprotein, the Kd is 9.12 µM.

Turning to `CC(C)CCC[C@@H](C)[C@H]1CC[C@H]2[C@@H]3CC[C@H]4C[C@@H](O[C@@H]5O[C@@H](C(=O)O)[C@@H](O[C@@H]6O[C@@H](C(=O)O)[C@@H](O[C@@H]7O[C@@H](C(=O)O)[C@@H](OS(=O)(=O)O)[C@H](O)[C@H]7OS(=O)(=O)O)[C@H](O)[C@H]6OS(=O)(=O)O)[C@H](O)[C@H]5OS(=O)(=O)O)CC[C@]4(C)[C@H]3CC[C@]12C`, the concentration for half-maximal inhibition (IC50) in the assay on SARS-CoV-2 [3] stood at 30.4 µg/mL (≈ 24.6 µM). Further, the Kd at Spike glycoprotein was determined as 9.18 µM.

For `[N-]=[N+]=NCCCCCCCCCCC(=O)NCCCCCCCCCCCO[C@@H]1O[C@H](COS(=O)(=O)[O-])[C@@H](O[C@H]2O[C@H](COS(=O)(=O)[O-])[C@@H](O[C@H]3O[C@H](COS(=O)(=O)[O-])[C@@H](O[C@H]4O[C@H](COS(=O)(=O)[O-])[C@@H](OS(=O)(=O)[O-])[C@H](OS(=O)(=O)[O-])[C@H]4OS(=O)(=O)[O-])[C@H](OS(=O)(=O)[O-])[C@H]3OS(=O)(=O)[O-])[C@H](OS(=O)(=O)[O-])[C@H]2OS(=O)(=O)[O-])[C@H](OS(=O)(=O)[O-])[C@H]1OS(=O)(=O)[O-].[Na+].[Na+].[Na+].[Na+].[Na+].[Na+].[Na+].[Na+].[Na+].[Na+].[Na+].[Na+].[Na+]`, the values for the IC50 in the assay on SARS-CoV-2 [1] (setting [5]) and in the assay on SARS-CoV-2 [2] were 84.1 µg/mL and “Not Active”, respectively.

On to `[N-]=[N+]=NCCCCCCCCCCC(=O)NCCCCCCO[C@@H]1O[C@H](COS(=O)(=O)[O-])[C@@H](O[C@H]2O[C@H](COS(=O)(=O)[O-])[C@@H](O[C@H]3O[C@H](COS(=O)(=O)[O-])[C@@H](O[C@H]4O[C@H](COS(=O)(=O)[O-])[C@@H](OS(=O)(=O)[O-])[C@H](OS(=O)(=O)[O-])[C@H]4OS(=O)(=O)[O-])[C@H](OS(=O)(=O)[O-])[C@H]3OS(=O)(=O)[O-])[C@H](OS(=O)(=O)[O-])[C@H]2OS(=O)(=O)[O-])[C@H](OS(=O)(=O)[O-])[C@H]1OS(=O)(=O)[O-].[Na+].[Na+].[Na+].[Na+].[Na+].[Na+].[Na+].[Na+].[Na+].[Na+].[Na+].[Na+].[Na+]`, for which the half-inhibitory concentration (IC50) amounted to 101 µg/mL with SARS-CoV-2 [3] and 158 µg/mL in the assay with SARS-CoV-2 [1] (setting [5]).

Turning to `C[C@H](CCC[C@@H](C)[C@H]1CC[C@@H]2C1CC[C@H]1[C@H]2CC[C@H]2C[C@@H](O[C@@H]3O[C@H](COS(=O)(=O)[O-])[C@@H](O[C@H]4O[C@H](COS(=O)(=O)[O-])[C@@H](O[C@H]5O[C@H](COS(=O)(=O)[O-])[C@@H](O[C@H]6O[C@H](COS(=O)(=O)[O-])[C@@H](OS(=O)(=O)[O-])[C@H](OS(=O)(=O)[O-])[C@H]6OS(=O)(=O)[O-])[C@H](OS(=O)(=O)[O-])[C@H]5OS(=O)(=O)[O-])[C@H](OS(=O)(=O)[O-])[C@H]4OS(=O)(=O)[O-])[C@H](OS(=O)(=O)[O-])[C@H]3OS(=O)(=O)[O-])CC[C@@]21C)CN=[N+]=[N-].[Na+].[Na+].[Na+].[Na+].[Na+].[Na+].[Na+].[Na+].[Na+].[Na+].[Na+].[Na+].[Na+]` (stereo partly drawn), the figures for the IC50 in the assay on SARS-CoV-2 [3] and with SARS-CoV-2 [1] (setting [5]) were 16.7 µg/mL and 109 µg/mL, respectively.
